Assays:
Format in all cases: cell-based
[1] = system: HIV‐1 LTR chromatin (Jurkat^Tat LTR‐DsRed clone #11); test: ChIP of histone H3K9 modifications at the HIV‐1 LTR
Method: To characterize induction of HIV‐1 expression caused by PH02 in more detail, we employed chromatin immunoprecipitation (ChIP) assays to examine changes at the LTR promoter using Jurkat^Tat LTR‐DsRed clone #11.
(§1) Figure 6 Effect of PH02 on histone modification at HIV‐1 LTR and global histone modification • Chromatin immunoprecipitation assays were performed using Jurkat^Tat LTR‐DsRed, clone 11. The cells were treated for 24 h with PH02 and/or PEP005, and ChIP was performed using antibodies against histone H3K9‐me3 (left panel) and histone H3K9‐ac (right panel). The results are presented relative to ChIP with antihistone H3 antibodies. The results are determined from three biological replicates (n = 3). Statistical significance, as determined by ratio paired t‐test, is indicated as follows: ***P < 0.0005; ****P < 0.00005. The exact P‐values are indicated in Appendix Table S1. • Western blot analysis was performed using Jurkat^Tat LTR‐DsRed, clone 11, to detect the expression of SP1, NF‐κB p65, IκBα, total H3K9‐me3, and H3K9ac. The cells were treated for 24 h with PH02 and/or PEP005. Source data are available online for this figure.
Jurkat^Tat LTR‐DsRed cells, clone #11, were treated with 3 μM PH02 and/or 10 nM PEP005, for 24 h, and the cells cross‐linked with 1% formaldehyde for 10 min at RT. The cells were resuspended in cold NP‐40 lysis buffer (0.5% NP‐40, 10 mM Tris–HCl pH 7.8, 3 mM MgCl2) containing freshly added protease inhibitor cocktail (PIC, Sigma‐Aldrich) and spun to collect nuclei. The nuclei were sonicated in buffer containing 10 mM Tris–HCl (pH 7.8), 10 mM EDTA, and 0.5% SDS to obtain DNA fragments of 200–2,000 bp using a Bioruptor sonicator (Diagenode). The chromatin fractions were precleared with protein A/G agarose beads (Millipore) and immune‐precipitated with anti‐H3K9‐me3, anti‐H3K9‐ac, or anti‐H3 antibodies (Abcam) according to the manufacturer's instructions. Cross‐links were reversed by incubating the samples at 68°C for 2 h, and DNA was purified using QIAquick PCR columns and assayed by qPCR using primers specific to the HIV‐1 LTR core promoter, AGTGGCGAGCCCTCAGAT, and […]. Results are presented as normalized relative to that for histone H3 immunoprecipitates.

[2] = system: SP1, NF‐κB p65, IκBα, total H3K9‐me3 and H3K9ac in Jurkat^Tat reporter cells; test: Western blot of SP1, NF‐κB p65, IκBα and global H3K9 modifications
Method: as §1
Figure EV3 Effect of PH compounds on SP1, NF‐κB p65, and IκBα expression Jurkat^Tat LTR‐Luciferase cells were treated with a single concentration (3 μM) of each PH compound for the indicated time points. Whole‐cell protein extract was separated by SDS–PAGE, transferred to nitrocellulose membrane, and blotted with antibodies against SP1, NF‐κB p65, and IκBα. GAPDH was used as the loading control. Source data are available online for this figure.
5 × 10^6 luciferase reporter cells/Jurkat^Tat LTR‐DsRed, clone 11, were treated with the indicated concentration of the compounds. After treatment, the cells were lysed in RIPA buffer (50 mM Tris–HCl, pH 8.0, 150 mM NaCl, 1% NP‐40, 0.5% sodium deoxycholate, 0.1% SDS), supplemented with 1× protease inhibitor cocktail and 1 mM DTT, to collect the whole‐cell protein extract, which was further quantified using Bradford assay. A 30 μg equivalent of the protein extract was mixed with the 5× SDS–PAGE sample buffer and boiled for 5 min, and then, it was separated using 12% SDS–PAGE gel and transferred to a nitrocellulose membrane. […]

[3] = system: replication‐competent HIV‐1 provirus in CD4^+ T cells from HIV‐1‐infected patients; test: Quantitative viral outgrowth assay (qVOA)
Method: However, 1 nM PEP005 in combination with 1 μM PH02 produced a significant response that was double that produced by 1 μM PH02 on its own (Fig 10A). We confirmed this effect using a quantitative viral outgrowth assay (qVOA) with pools of CD4^+ T cells isolated from HIV‐1‐infected patient samples (Fig EV5, Appendix Table S5). […] We conclude that this combination of treatments may represent a promising candidate therapy to target persistent latent viral infection.
Figure EV5 Assay for reactivation of HIV‐1 from latently infected cells using a quantitative viral outgrowth assay Resting CD4^+ T cells from patient samples were serially diluted in 6‐ or 24‐well plates in duplicate (top) and treated as indicated (left). After 24 h, MOLT4/CCR5 cells were added to the wells, and the cultures incubated a further 14 days. HIV‐1 RNA was detected in filtered culture supernatants using RT–qPCR, and wells producing the specific PCR product are indicated in green. […]
For quantitative viral outgrowth assays (qVOA), serial dilutions of CD4^+ T lymphocytes from pooled HIV‐infected patients were plated in 6‐ or 24‐well plates (1 × 10^6 cells or < 1 × 10^6 cells, respectively). […] Viral RNA was isolated from the culture supernatants and analyzed as described above. […]

[4] = single treatment, 3 μM PH02 or 10 nM PEP005, 24 h
[5] = Jurkat^Tat LTR‐DsRed clone 11, 24 h

Compound | H3K9 acetylation on the LTR [1, 4] | H3K9‐3me at the LTR relative to total histone H3 [1, 4] | IκBα level ([2]; Jurkat^Tat LTR‐DsRed clone 11, 24‐h treatment, alone or with PH02) | reactivation of virus ([3]; 1 nM PEP005 alone, 24 h) | H3K9 acetylation on the LTR ([1]; 3 μM PH02 + 10 nM PEP005, 24 h) | H3K9‐3me at the LTR relative to total histone H3 ([1]; 3 μM PH02 + 10 nM PEP005, 24 h, versus either drug separately) | expression of NF‐κB p65 and SP1 [2, 5] | global acetylation or methylation of lysine 9 on H3 [2, 5] | virus replication ([3]; 1 μM PH02 + 1 nM PEP005, 24 h)
C/C=C(/C)C(=O)O[C@H]1C(C)=C[C@]23C(=O)[C@@H](C=C(CO)[C@@H](O)[C@]12O)[C@H]1[C@@H](C[C@H]3C)C1(C)C [PEP005, ingenol‐3‐angelate, reference compound] | accumulation of H3K9 acetylation | a similar effect was observed | causes loss of IκBα | did not produce reactivation of virus | – | – | – | – | –
CC(=O)Oc1ccccc1N(C=C1Sc2ccccc2C1=O)C(C)=O [PH02, 2‐{acetyl[(3‐oxo‐1‐benzothien‐2(3H)‐ylidene)methyl]amino}phenyl acetate] | accumulation of H3K9 acetylation | significantly reduced | – | – | significant elevation | equivalent reduction | mostly unaffected | do not observe a significant effect | produced significant virus replication

— publication PMC5838563, “Compounds producing an effective combinatorial regimen for disruption of HIV‐1 latency” (EMBO Molecular Medicine, 2017)
